Several values for one entry are separate records, joined by “and”; a condition that tells them apart may be missing. Identical values can stand only once. Inconclusive results and toxic doses are left out. The calls were made as follows: active = survival T/C of 150% or more; inactive = T/C below 125% in these data.
Tested on: P388 leukemia ip, CD2F1 mice, survival T/C
Assay: NCI In Vivo Anticancer Drug Screen. Data for tumor model P388 Leukemia (intraperitoneal) in CD2F1 (CDF1) mice
Settings: endpoint: median survival time, higher = longer survival
How it was run: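 Mice carrying the transplanted tumor received test compound or vehicle. Survival was recorded in each group, and the value is the treated-group measurement divided by that of the vehicle-treated control group.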

[1] = dose: 25.0 mg/kg/injection, schedule: Q01DX009 (ip), vehicle: saline with Tween-80
[2] = dose: 50.0 mg/kg/injection, schedule: Q01DX009 (ip), vehicle: saline with Tween-80
[3] = dose: 50.0 mg/kg/injection, schedule: Q01DX009 (ip), vehicle: suspension in saline
[4] = dose: 100.0 mg/kg/injection, schedule: Q01DX009 (ip), vehicle: saline with Tween-80
[5] = dose: 100.0 mg/kg/injection, schedule: Q01DX009 (ip), vehicle: suspension in saline
[6] = dose: 200.0 mg/kg/injection, schedule: Q01DX009 (ip), vehicle: saline with Tween-80
[7] = dose: 100.0 mg/kg/injection, schedule: Q04DX003 (ip), vehicle: saline
[8] = dose: 200.0 mg/kg/injection, schedule: Q04DX003 (ip), vehicle: saline
[9] = dose: 400.0 mg/kg/injection, schedule: Q04DX003 (ip), vehicle: saline
[10] = dose: 60.0 mg/kg/injection, schedule: Q01DX005 (ip), vehicle: Klucel (hydroxypropylcellulose) (HPC)
[11] = dose: 120.0 mg/kg/injection, schedule: Q01DX005 (ip), vehicle: Klucel (hydroxypropylcellulose) (HPC)
[12] = dose: 60.0 mg/kg/injection, schedule: Q01DX005 (ip), vehicle: saline with Tween-80
[13] = dose: 120.0 mg/kg/injection, schedule: Q01DX005 (ip), vehicle: saline with Tween-80
[14] = dose: 240.0 mg/kg/injection, schedule: Q01DX005 (ip), vehicle: saline with Tween-80
[15] = dose: 240.0 mg/kg/injection, schedule: Q01DX005 (ip), vehicle: Klucel (hydroxypropylcellulose) (HPC)
[16] = dose: 12.5 mg/kg/injection, schedule: Q01DX009 (ip), vehicle: saline with Tween-80
[17] = dose: 50.0 mg/kg/injection, schedule: Q01DX009 (ip), vehicle: Klucel (hydroxypropylcellulose) (HPC)
[18] = dose: 100.0 mg/kg/injection, schedule: Q01DX009 (ip), vehicle: Klucel (hydroxypropylcellulose) (HPC)
[19] = dose: 200.0 mg/kg/injection, schedule: Q01DX009 (ip), vehicle: Klucel (hydroxypropylcellulose) (HPC)

Measured: T/C

O=C1CCSC(=S)N1c1ccc(Cl)c([N+](=O)[O-])c1
inactive: [1] 87 % of control | dose: 25.0 mg/kg/injection, schedule: Q01DX009 (ip), vehicle: saline 97 % of control | [2] 88 % of control | dose: 50.0 mg/kg/injection, schedule: Q01DX009 (ip), vehicle: saline 104 % of control | [3] 103 % of control | [4] 98 % of control | dose: 100.0 mg/kg/injection, schedule: Q01DX009 (ip), vehicle: saline 97 % of control | [5] 109 % of control | [6] 115 % of control | dose: 200.0 mg/kg/injection, schedule: Q01DX009 (ip), vehicle: saline 97 % of control

COC(=O)C1=C(C(=O)OC)P2(C)(C)N(C)C(=S)N2C1(c1ccccc1)c1ccccc1
inactive: dose: 50.0 mg/kg/injection, schedule: Q01DX005 (ip), vehicle: Klucel (hydroxypropylcellulose) (HPC) 102 % of control | dose: 100.0 mg/kg/injection, schedule: Q01DX005 (ip), vehicle: Klucel (hydroxypropylcellulose) (HPC) 94 % of control | dose: 200.0 mg/kg/injection, schedule: Q01DX005 (ip), vehicle: Klucel (hydroxypropylcellulose) (HPC) 94 % of control

O=C(O)CCCC/C=C/CCCCCCC1C=CCC1 (stereo not given)
inactive: [7] 93 % of control | [8] 98 % of control | [9] 91 % of control

COc1ccccc1-n1c(SC)nccc1=O
inactive: dose: 100.0 mg/kg/injection, schedule: Q04DX002 (ip), vehicle: Klucel (hydroxypropylcellulose) (HPC) 100 % of control | dose: 200.0 mg/kg/injection, schedule: Q04DX002 (ip), vehicle: Klucel (hydroxypropylcellulose) (HPC) 100 % of control | dose: 400.0 mg/kg/injection, schedule: Q04DX002 (ip), vehicle: Klucel (hydroxypropylcellulose) (HPC) 94 % of control

Cc1ccc(S(=O)(=O)OCC2(COS(=O)(=O)c3ccc(C)cc3)COC2)cc1
inactive: dose: 50.0 mg/kg/injection, schedule: Q01DX001 (ip), vehicle: Klucel (hydroxypropylcellulose) (HPC) 107 % of control | dose: 100.0 mg/kg/injection, schedule: Q01DX001 (ip), vehicle: Klucel (hydroxypropylcellulose) (HPC) 103 % of control | dose: 200.0 mg/kg/injection, schedule: Q01DX001 (ip), vehicle: Klucel (hydroxypropylcellulose) (HPC) 100 % of control

O=C1C(N=Nc2ccc(Cl)cc2)Sc2nc3ccccc3n21 (stereo not given)
inactive: [10] 92 % of control | [11] 90 % of control

Nc1nc(F)nc2c1ncn2CC(O)CO (stereo not given)
inactive: dose: 50.0 mg/kg/injection, schedule: Q01DX005 (ip), vehicle: distilled water + alcohol 100 % of control | dose: 100.0 mg/kg/injection, schedule: Q01DX005 (ip), vehicle: distilled water + alcohol 101 % of control | dose: 200.0 mg/kg/injection, schedule: Q01DX005 (ip), vehicle: distilled water + alcohol 95 % of control

CC(=O)CC(=O)CCCCCCCCCCCC(=O)O
inactive: [2] 94 % of control | [4] 98 % of control | [6] 103 % of control

COC(=O)C12CN(C)CC(C(=O)OC)(C1=O)C(c1ccccc1)OC2c1ccccc1 (stereo not given)
inactive: [12] 107 % of control and 98 % of control | [13] 99 % of control | [14] 98 % of control and 90 % of control

O=C1S/C(=C2\C(=O)N(CN3CCOCC3)c3ccccc32)C(=O)N1CN1CCOCC1
inactive: [10] 100 % of control | [11] 108 % of control | [15] 108 % of control

CCC1=C(C)c2cc3[n-]c(cc4nc(cc5[n-]c(cc1n2)c(C)c5CCC(=O)OC)C(CCC(=O)OC)=C4C)c(C)c3CC.[Ni+2]
inactive: dose: 18.75 mg/kg/injection, schedule: Q01DX009 (ip), vehicle: saline with Tween-80 87 % of control | dose: 37.5 mg/kg/injection, schedule: Q01DX009 (ip), vehicle: saline with Tween-80 87 % of control | dose: 75.0 mg/kg/injection, schedule: Q01DX009 (ip), vehicle: saline with Tween-80 94 % of control

Cc1cccc(C2=NCCN2)c1C
inactive: dose: 5.0 mg/kg/injection, schedule: Q04DX003 (ip), vehicle: saline with Tween-80 100 % of control | dose: 10.0 mg/kg/injection, schedule: Q04DX003 (ip), vehicle: saline with Tween-80 100 % of control | dose: 20.0 mg/kg/injection, schedule: Q04DX003 (ip), vehicle: saline with Tween-80 100 % of control

COC(=O)C1(C2CCCCCCC2=O)NC(=S)NC(=O)C1C#N (stereo not given)
inactive: [12] 92 % of control | [13] 99 % of control | [14] 99 % of control

C/C(=N\N=c1\sc2ccccc2n1CC(=O)O)c1ccc([N+](=O)[O-])cc1
inactive: dose: 100.0 mg/kg/injection, schedule: Q01DX001 (ip), vehicle: saline with Tween-80 93 % of control | dose: 200.0 mg/kg/injection, schedule: Q01DX001 (ip), vehicle: saline with Tween-80 101 % of control

c1ccc(C(c2ccccc2)c2cc(-c3cc(C(c4ccccc4)c4ccccc4)[nH]n3)n[nH]2)cc1
inactive: dose: 60.0 mg/kg/injection, schedule: Q01DX005 (ip), vehicle: distilled water + Tween-80 97 % of control | dose: 120.0 mg/kg/injection, schedule: Q01DX005 (ip), vehicle: distilled water + Tween-80 102 % of control | dose: 240.0 mg/kg/injection, schedule: Q01DX005 (ip), vehicle: distilled water + Tween-80 102 % of control

Cc1ccc(N2C(=O)CSC2=S)cc1Br
inactive: [3] 93 % of control | [5] 105 % of control | dose: 200.0 mg/kg/injection, schedule: Q01DX009 (ip), vehicle: suspension in saline 93 % of control

ClC(Cl)=C(Cl)Cl
inactive: [16] 102 % of control and 107 % of control | dose: 25.0 mg/kg/injection, schedule: Q01DX009 (ip), vehicle: Klucel (hydroxypropylcellulose) (HPC) 100 % of control and 109 % of control | [1] 107 % of control and 114 % of control | [17] 98 % of control and 103 % of control | [2] 105 % of control and 112 % of control | [18] 100 % of control and 107 % of control | [4] 108 % of control and 112 % of control | [19] 100 % of control | [6] 107 % of control and 110 % of control | dose: 300.0 mg/kg/injection, schedule: Q01DX009 (ip), vehicle: Klucel (hydroxypropylcellulose) (HPC) 104 % of control and 106 % of control

O=C1NC(=O)/C(=C2\CCOC2=O)N1
inactive: [2] 100 % of control | [4] 94 % of control | [6] 100 % of control

COc1ccc2c(c1OC)C(=C(C#N)C#N)N1CCc3cc4c(cc3C1=C2)OCO4
inactive: dose: 0.63 mg/kg/injection, schedule: Q01DX009 (ip), vehicle: distilled water + Tween-80 103 % of control | dose: 1.25 mg/kg/injection, schedule: Q01DX009 (ip), vehicle: distilled water + Tween-80 94 % of control | dose: 2.5 mg/kg/injection, schedule: Q01DX009 (ip), vehicle: distilled water + Tween-80 112 % of control | dose: 5.0 mg/kg/injection, schedule: Q01DX009 (ip), vehicle: distilled water + Tween-80 112 % of control | dose: 10.0 mg/kg/injection, schedule: Q01DX009 (ip), vehicle: distilled water + Tween-80 108 % of control | dose: 20.0 mg/kg/injection, schedule: Q01DX009 (ip), vehicle: distilled water + Tween-80 121 % of control

BrCCCC1OCCO1
inactive: [12] 100 % of control | [13] 100 % of control | [14] 104 % of control

OC(CCCCl)CC(O)(C(F)(F)F)C(F)(F)F (stereo not given)
inactive: [2] 110 % of control | [4] 110 % of control | [6] 110 % of control

Cc1ccc2c(c1)C(O)(CC(=O)c1ccccn1)C(=O)N2 (stereo not given)
inactive: [10] 104 % of control | [11] 97 % of control | [15] 104 % of control

CCc1nc2cc(C)ncn2n1
inactive: [7] 100 % of control | [8] 96 % of control | [9] 101 % of control

CN1CC[N+](C)=C1c1nc2ccccc2n1C
inactive: dose: 12.5 mg/kg/injection, schedule: Q01DX009 (ip), vehicle: suspension in saline 105 % of control | dose: 25.0 mg/kg/injection, schedule: Q01DX009 (ip), vehicle: suspension in saline 117 % of control | [3] 118 % of control

COc1ccc(C2c3cc4c(cc3OC3(N5CCCC5)CCCCC23)OCO4)c(OC)c1 (stereo not given)
inactive: [10] 87 % of control | [11] 90 % of control | [15] 91 % of control

COCCOC(=O)c1c(Cl)c(Cl)c(Cl)c(Cl)c1C(=O)O
inactive: [2] 96 % of control | [4] 96 % of control | [6] 101 % of control

CCOC(=O)C1(CO)C(=O)Nc2ccccc21 (stereo not given)
inactive: [17] 110 % of control | [18] 106 % of control | [19] 107 % of control

Cc1cc(N=Nc2ccncc2C)ccc1N
inactive: dose: 6.25 mg/kg/injection, schedule: Q01DX009 (ip), vehicle: saline with Tween-80 106 % of control | [16] 104 % of control | [1] 100 % of control | [2] 92 % of control

Reference: PubChem BioAssay AID330 (DTP/NCI, 2004)
